{
  "source": "patent US20200129523A1",
  "about": "“SHIP INHIBITION TO INDUCE EXPRESSION OF GRANULOCYTE COLONY STIMULATING FACTOR IN A SUBJECT” (THE RESEARCH FOUNDATION FOR THE STATE UNIVERSITY OF NEW YORK, priority 2014, published 2020)",
  "tested_on": "HSC compartment",
  "assay": "Flow cytometric quantitation of hematopoietic stem/progenitor populations and cellularity in bone marrow of treated mice",
  "format": "in vivo, C57BL/6NTac mice",
  "details": "K118 10 mg/kg i.p. 5 days, vs H2O",
  "method": "HSC phenotype, cell-cycle progression, G-CSF neutralization, and CXCR4 MFI determination by FACS analysis was performed on whole bone marrow (WBM) cells harvested from a tibia and femur pair obtained from SHIPi and vehicle treated 8-12 week old male C57BL/6NTac mice (Taconic). Generation of the CD45.1×CD45.2 strain utilized in the CRU assay were obtained by intercrossing C57BL6/J (CD45.2) and B6.SJL (CD45.1), as previously described.^5 The SUNY Upstate Medical University Committee for Humane Use of Animals approved all animal experiments.\nIn vivo administration of 3AC was previously described.^14 Briefly, 3AC is resuspended as an emulsion in 0.3% Klucel/H20. Mice were treated via intraperitoneal injection every 24 hrs for 5 days at a final concentration of 26.5 mg/kg. Analysis and transplants were performed on day 6. The 3AC derivative K118 (Soluble SHIPi) was suspended in pure H2O and heated at 100° C. for ˜15 min to allow the compound to enter solution. The delivery method was the same as with 3AC, however, the mice were treated for 5 days at a final concentration of 10 mg/kg. Vehicle cohorts for 3AC were treated with 0.3% Klucel/H20 and K118 were treated with pure H2O.\nCell isolation was performed according to method detailed in Hazen et al.^6 Briefly, WBM was flushed from both femurs and tibias per mouse with a 25-gauge needle, red blood cell lysed (eBioscience), and resuspended in staining media comprised of Hanks Buffered Saline Solution (HBSS), 2% heat inactivated fetal bovine serum (FBS), and 10 mM HEPES (Sigma). The cells harvested for the CRU assay were flushed, red blood cell lysed, washed, and resuspended in sterile phosphate buffered saline (PBS). Peripheral blood mononuclear cells (PBMC) were collected via submandibular bleed in EDTA Micorvette tubes (SARSTEDT).\nAll antibodies were from BD Biosciences or eBioscience. All WBM, PBMC and BM derived MSC cell populations were Fc blocked on ice for 10 min prior to antibody staining. Global reconstitution was determined by staining PBMC with CD45.1-PeCy7 and CD45.2-APC. Multi-lineage repopulation was determined by staining PBMC with CD3-FITC (145-2C11), CD19-PerCP5.5 (1D3), Mac1-PE (M1/70), Gr1-Alexa700 (RB6-8C5) and NK1.1-APC-Cy7 (PK136). The Lin−cKit+Sca1+CD34−Flk2− (LSKF34−) phenotype was utilized to determine frequency of LT-HSC, ST-HSC, and MPP; the stain was comprised of Lin-PerCP 5.5, cKit-APC (2B8), Sca1-PeCy7 (D7), CD34-FITC (RAM34), Flk2-PE (A2F10). LSKF-CXCR4 stain was used to determine surface expression of the homing marker CXCR4. All cells were washed twice with staining media, resuspended in staining media plus DAPI for dead cell exclusion, and then analyzed on a flow cytometer LSRII (BD Biosciences). All flow cytometry data was analyzed using FlowJo (9.4.3) software.",
  "data": [
    {"smiles": "C[C@@]12CCC[C@H]1[C@@H]1CC[C@H]3C[C@@H](N)CC[C@]3(C)[C@H]1CC2.Cl", "note": "[K118, 3β-amino-5α-androstane hydrochloride]", "values": [
      {"measurement": "BM cellularity", "value": "significant increase"},
      {"measurement": "LT-HSC in BM", "value": "significant increases"},
      {"measurement": "MPP in BM", "value": "significant increases"},
      {"measurement": "ST-HSC in BM", "value": "significant increases"}
    ]}
  ]
}
